Experimental data taken from PubChem BioAssay (NCI).
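The compound was tested at five concentrations on cells cultured in 96-well plates, with a 48-hour exposure period. GI50 = concentration required for 50% inhibition of growth. TGI: total growth inhibition.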

Assays:
Assay in all cases: DTP human tumour cell line panel, 48 h
SK-OV-3 ovarian = tested on: SK-OV-3 ovarian
MALME-3M melanoma = tested on: MALME-3M melanoma
HL-60(TB) leukemia = tested on: HL-60(TB) leukemia
NCI-H23 lung = tested on: NCI-H23 lung
UACC-257 melanoma = tested on: UACC-257 melanoma
LOX IMVI melanoma = tested on: LOX IMVI melanoma
SF-268 CNS = tested on: SF-268 CNS
SNB-75 CNS = tested on: SNB-75 CNS
OVCAR-8 ovarian = tested on: OVCAR-8 ovarian

SMILES	TGI (SK-OV-3 ovarian)	TGI (MALME-3M melanoma)	TGI (HL-60(TB) leukemia)	TGI (NCI-H23 lung)	TGI (UACC-257 melanoma)	TGI (LOX IMVI melanoma)	TGI (SF-268 CNS)	TGI (SNB-75 CNS)	TGI (OVCAR-8 ovarian)	GI50 (SK-OV-3 ovarian)	GI50 (MALME-3M melanoma)	GI50 (HL-60(TB) leukemia)	GI50 (LOX IMVI melanoma)	GI50 (SF-268 CNS)	GI50 (OVCAR-8 ovarian)
CC(=O)Nc1ccc(/C=c2\sc3nnc(/C=C/c4ccccc4)n3c2=O)cc1	> 50 µM	> 50 µM	> 50 µM	> 50 µM	> 50 µM	> 50 µM	> 50 µM	> 50 µM	> 50 µM	–	–	–	–	–	–
CC1CC2C3CC(F)C4=CC(=O)C=CC4(C)C3(F)C(O)CC2(C)C1(O)C(=O)CO (stereo not drawn)	> 100 µM	> 100 µM	> 100 µM	> 100 µM	> 100 µM	> 100 µM	> 100 µM	> 100 µM	–	–	–	–	–	–	–
O=C1CCC(=O)c2cc(Br)ccc2N1	> 100 µM	> 100 µM	> 100 µM	> 100 µM	> 100 µM	> 100 µM	> 100 µM	> 100 µM	> 100 µM	–	–	–	–	–	–
Cc1ccc(NC(=O)SCCC(=O)O)cc1NC(=O)SCCC(=O)O	–	–	> 100 µM	> 100 µM	> 100 µM	> 100 µM	> 100 µM	–	> 100 µM	–	–	–	–	–	–
COc1cc2c(cc1OC)-c1c(cc(OC)c(OC)c1OC)C2=O	> 100 µM	> 100 µM	> 100 µM	> 100 µM	> 100 µM	> 100 µM	> 100 µM	95.5 µM	> 100 µM	–	–	–	–	–	–
Oc1cccc(C2SCc3nc4ccccc4n32)c1 (stereo not drawn)	> 100 µM	> 100 µM	> 100 µM	> 100 µM	> 100 µM	–	> 100 µM	> 100 µM	> 100 µM	–	–	–	–	–	–
O=C(O)/C(O)=C1/C=C(c2ccccc2)c2ccccc21	> 100 µM	71.3 µM	45.6 µM	–	48.1 µM	36.1 µM	51.7 µM	61.7 µM	59.4 µM	–	–	–	–	–	–
O=C(Nc1cc(C(F)(F)F)ccc1Cl)C(=O)C(C(=O)c1ccc2ccccc2c1)C1OC(=O)c2ccccc21 (stereo not drawn)	> 100 µM	27.4 µM	37.3 µM	17.8 µM	26 µM	25.7 µM	52.8 µM	21.7 µM	24.8 µM	–	–	–	–	–	–
CNC(=O)OCc1nc(S(C)=O)n(C)c1COC(=O)NC (stereo not drawn)	> 73.3 µM	> 100 µM	> 100 µM	> 100 µM	> 100 µM	> 100 µM	> 100 µM	> 100 µM	> 100 µM	–	–	–	–	–	–
COc1ccc2cc(C(=O)/C=C/c3ccc(OC)c(OC)c3)ccc2c1	> 100 µM	> 100 µM	25 µM	–	–	> 100 µM	55.1 µM	–	49.7 µM	32.4 µM	> 100 µM	2.31 µM	3.38 µM	19.2 µM	14 µM
CSc1s[s+]c(SC)c1[O-]	> 100 µM	40.6 µM	47.1 µM	50.4 µM	50.2 µM	–	55.8 µM	> 100 µM	43.7 µM	–	–	–	–	–	–
O=C1OC(=O)C2C3CCC(O3)C12 (stereo not drawn)	> 100 µM	> 100 µM	> 100 µM	> 100 µM	> 100 µM	–	> 100 µM	–	> 100 µM	–	–	–	–	–	–
C=C(CO)CC(O)c1ccccc1 (stereo not drawn)	> 100 µM	–	> 100 µM	> 100 µM	–	> 100 µM	> 100 µM	> 100 µM	> 100 µM	–	–	–	–	–	–
COC1OC(C)C(OC(=O)C(C)(C)C)C(C)(O)C1O (stereo not drawn)	–	> 100 µM	> 100 µM	> 100 µM	> 100 µM	> 100 µM	> 100 µM	–	> 100 µM	–	–	–	–	–	–
CN(C)CC1(C)CC/C(=C\c2ccc3c(c2)OCO3)C1=O (stereo not drawn)	–	> 100 µM	–	> 100 µM	> 100 µM	> 100 µM	> 100 µM	> 100 µM	> 100 µM	–	–	–	–	–	–
CC(C)OCN1COCN=C1NC#N	> 100 µM	> 100 µM	> 100 µM	> 100 µM	> 100 µM	–	> 100 µM	> 100 µM	> 100 µM	–	–	–	–	–	–
C=C(C)C1CC[C@]2(C(=O)O)CCC3(C)[C@H](CCC4[C@@]5(C)CC[C@H](OC6OC(CO)C(O)C6OC6OC(C)C(O)C(O)C6O)[C@@](C)(CO)C5CC[C@]43C)C12 (stereo partly drawn)	–	–	> 100 µM	> 100 µM	–	> 100 µM	> 100 µM	> 100 µM	> 100 µM	–	–	–	–	–	–
Cc1cccc(NC(=O)CC2C(=O)Nc3ccccc3S2(=O)=O)c1C (stereo not drawn)	37.7 µM	45.1 µM	> 100 µM	33.7 µM	> 100 µM	–	> 100 µM	41.6 µM	44.4 µM	–	–	–	–	–	–
COc1cc(C2C(C(=O)O)=C(C)Oc3cc4c(cc32)OCO4)cc(OC)c1OC (stereo not drawn)	91.2 µM	> 100 µM	50.8 µM	> 100 µM	> 100 µM	> 100 µM	–	53.1 µM	> 100 µM	–	–	–	–	–	–
CCCCCN(CCCCC)C(=O)[C@@H](CCC(=O)OCc1ccccc1)NC(=O)c1cc2ccccc2[nH]1	> 100 µM	> 100 µM	–	> 100 µM	> 100 µM	> 100 µM	> 100 µM	> 100 µM	> 100 µM	–	–	–	–	–	–
COc1ccc(OC)c(CCc2cc(OC)c(OC)cc2C)c1	98.4 µM	> 100 µM	–	> 100 µM	> 100 µM	–	> 100 µM	> 100 µM	> 100 µM	–	–	–	–	–	–
